# Assay results published in patent US9931410B2, “Nanoparticles for targeted delivery of multiple therapeutic agents and methods of use” (priority 2012, dated 2018).
# Assays:
# [1] = Drug loading and encapsulation efficiency (AAS for platinum, spectrophotometry for irinotecan); format: physicochemical
# Protocol: Particle sizing was performed using dynamic light scattering (DLS) with a Zetasizer Nano ZS instrument (Malvern Instruments Ltd., U.K.). For each measurement, 100 μL or more of the sample was loaded in a disposable low-volume cuvette. Transmission electron microscopy (TEM) experiments were carried out on a JEOL 2011 instrument at an acceleration voltage of 200 kV. The TEM sample was prepared by depositing 10 μL of the nanoparticle suspension (1.0 mg/mL) onto a 300-mesh carbon-coated copper grid. Samples were blotted away after 30 minutes incubation and the grids were negatively stained for 20 minutes at room temperature with a sterile-filtered 1% (w/v) uranyl acetate aqueous solution. Drug loading and encapsulation efficiency (EE) were determined by quantifying the amount of drug in the nanoparticles. Drug loading is defined as the mass fraction of the drug in the nanoparticles, whereas EE is the fraction of initial drug that is encapsulated by the nanoparticles. After synthesis, nanoparticles were dissolved in a solution 50/50 acetonitrile/water and vortexed for several hours to induce nanoparticle dissociation. The amount of platinum inside the nanoparticles was detected using Atomic Absorption Spectroscopy (AAS), from which the load of cisplatin was calculated. Irinotecan was detected using spectrophotometry on a TECAN 1000 plate reader at a wavelength of 385 nm. A calibration curve with known concentrations of irinotecan was prepared, and the amount of irinotecan encapsulated in the nanoparticles was calculated using the calibration curve.
# [2] = Drug release from nanoparticles over time in phosphate buffered saline; format: physicochemical; conditions: PLGA-PEG-LIG nanoparticles, irinotecan to cisplatin ratio 2:1, phosphate buffered saline
# Protocol: FIG. 8 is a graph showing the percent of irinotecan and platinum release from PLGA-PEG-LIG nanoparticles over time in phosphate buffered saline.
# Next, the amount of cisplatin and irinotecan encapsulated in the nanoparticles as well their encapsulation efficiency (EE) was determined (FIG. 7). As expected, cisplatin was encapsulated with very high efficiency (>80%) due to the hydrophobic-hydrophobic interaction PLGA and PLA. […] This might be due to hydrophilic-hydrophilic interactions of the platinum prodrug and irinotecan. […] The percent drug release of irinotecan and platinum of these nanoparticles over time was also assessed. Irinotecan was released from these nanoparticles at a faster rate compared to the release of the Pt-containing chemotherapeutic agent (FIG. 8).
# [3] = after self-assembly with PLGA-PEG
# [4] = mixed with both PLGA-PEG and PLA-cisplatin
Compound,"drug loading of irinotecan [1, 3]","encapsulation efficiency (EE) of irinotecan [1, 3]","drug loading of irinotecan [1, 4]","encapsulation efficiency (EE) of irinotecan [1, 4]",rate of drug release from nanoparticles compared to the Pt-containing agent [2],encapsulation efficiency of cisplatin ([1]; cisplatin as PLA-cisplatin in nanoparticles)
"CCc1c2c(nc3ccc(OC(=O)N4CCC(N5CCCCC5)CC4)cc13)-c1cc3c(c(=O)n1C2)COC(=O)[C@]3(O)CC [Irinotecan, irinotecan]",0.5%,10%,2.2%,44%,faster rate,
N.N.[Cl][Pt][Cl] [cisplatin],,,,,,> 80%
